# Test results: patent US20250066282A1, “NOVEL ANALOGS OF VALPROIC ACID AND METHODS OF MEDICAL TREATMENT USING THE SAME” (Cereno Scientific AB, priority 2021, published 2025)
# Tests used:
# [1] = reported by Rettie, J. Biol. Chem. 263(27):13733-13738 (1988); cited from earlier work
# [2] = test system: C57BL/6 wild type mice; assay: Excessive bleeding assay (tail bleeding time); type: in vivo; conditions: tail resection 5 mm, 100 mg/kg IP once a day for five days, compared to control (FIG. 1)
# Method: To determine the risks of excessive bleeding associated with the compounds of the present invention, the last 5 mm of the tail of mice was resected to identify the amount of time necessary for the vessel to properly clot and prevent excessive loss of blood.
# 10-12 weeks old C57BL/6 wild type mice were purchased from Jackson Laboratories for these experiments. Various compounds were administered to the mice via IP injection once a day at a dose of 100 mg/kg of compound for five days prior to resection.
# Mice were sedated with 250 μL of ketamine solution (Ketamine (100 μL)/xylazine (50 μL) in 850 μl. Saline solution). The mice were then placed face down on a heat pad on top of the bead bath to enable the tail to be pulled into a saline-filled tube. 5 mm of the tail as cut with a scalpel and the tail was placed in a saline-filled tube and a timer started. The timer was stopped when the bleeding stopped, but the possibility of re-bleeds was observed from 10 minutes after initial bleeding stopped. If the mouse bleeds continuously for 10 minutes, the experiment was halted and the mouse was euthanized. One-way ANOVA with Dunnett's correction for multiple comparison test was performed to determine statistical significance of bleeding times.
# [3] = test system: C57BL/6 wild type mice; assay: Cremaster laser-induced thrombosis assay (platelet accumulation, fibrin formation); type: in vivo; conditions: cremaster arteriole laser-induced injury
# Method: The effects of the compounds of the invention and VPA on the ability and timing of clot formation were determined. Specifically, platelet accumulation and fibrin formation in the cremaster artery in forming a non-occlusive clot were measured following laser-induced insult to the vessel in 10-12 week-old mice (C57BL/6 wild type mice purchased from Jackson Laboratories).
# Valproic acid (VPA) was purchased from Sigma-Aldrich as a powder and resuspended in 0.9% Sodium Chloride (saline) to prepare a final stock solution of each compound.
# To assess platelet accumulation and fibrin formation, a Zeiss Axio Examiner Z1 fluorescent multichannel intravital microscope was used. The microscope was equipped with: (1) a solid laser launch system (LaserStack; Ablate! Photoablation system, intelligent Imaging innovations), (2) a high-speed sCMOS camera, and (3) a laser ablation system (intelligent Imaging innovations, Denver, CO, USA). SlideBook 6.0 digital microscopy software for image recording and analysis was also used. An anti-platelet antibody, and an anti-fibrin antibody, both commercially available, were used for imaging purposes.
# The dynamic accumulation of platelets and fibrin within thrombi at the site of the injury in vivo was evaluated in cremaster arteriole in response to laser-induced injury under intravital microscopy. Adult male mice (10-12 weeks old) were treated with 30 mg/kg and 100 mg/kg for 5 days prior to injury were anesthetized by an intraperitoneal injection of ketamine/xylazine (100 and 10 mg/kg, respectively) and the jugular vein was cannulated. A tracheal tube was inserted to facilitate breathing. The cremaster arteriole was surgically prepared and superfused with preheated bicarbonate saline buffer throughout the experiment.
# DyLight 488-conjugated rat anti-mouse platelet GP1bβ antibody (0.1 μg/g; EMFRET Analytics) and Alexa Fluor 647-conjugated anti-fibrin (0.3 μg/g) were administered intravenously via a jugular vein cannula prior to vascular injury. Microcirculation was monitored and recorded under multichannel intravital microscopy.
# Multiple independent thrombi (6-8 thrombi in each mouse) were induced in the arterioles (30-50 μm diameter) in each mouse by a laser ablation system. Images of thrombus formation at the site of injured arterioles were acquired in realtime under 63× water-immersion objective with a Zeiss Axio Examiner Z1 fluorescent microscope equipped with solid laser launch system (LaserStack; Intelligent Imaging Innovations) and high-speed sCMOS camera. All captured images were analyzed for the change of fluorescent intensity over the course of thrombus formation after subtracting fluorescent background using the Slidebook program. […]
# [4] = 100 mg/kg IP for 5 days, versus VPA (FIG. 4)
SMILES,formation of the 4-ene-VPA metabolite compared to VPA [1],bleeding time [2],"platelet accumulation [3, 4]",other results
"[2H]C([2H])([2H])CCC(CCC([2H])([2H])[2H])C(=O)O [5,5,5,5′,5′,5′D6VPA]",increased amount of the 4-ene-VPA metabolite,–,–,–
"CCCC(CCC)C(=O)O [VPA, Valproic acid]",–,significant increase in bleeding time,–,–
"[2H]C([2H])C([2H])([2H])CC([2H])(CC([2H])([2H])C([2H])[2H])C(=O)O [Compound Ib, 2-(Propyl-2,2,3,3-d4)pentanoic-2,4,4,5,5-d5 acid]",–,–,consistent decrease in platelet accumulation over VPA,–
"[2H]C([2H])(C)CC(CC([2H])([2H])C)C(=O)O [4,4,4′,4′-D4VPA]",considerably less formation of the 4-ene metabolite,–,–,–
"[2H]C([2H])C([2H])([2H])CC(CC([2H])([2H])C([2H])[2H])C(=O)O [Compound Ia, 2-[(2,2,3,3-2H4)propyl](4,4,5,5-2H4)pentanoic acid]",–,best safety profile in terms of risk of excess bleeding,consistent decrease in platelet accumulation over VPA,"platelet accumulation ([3]; 30 mg/kg IP for 5 days, versus VPA (FIG. 2)): consistent decrease; fibrin formation ([3]; 30 mg/kg IP for 5 days, versus VPA (FIG. 3)): consistent decrease"
